Results as given in publication PMC6691401 (Journal of Medicinal Chemistry, 2019).
Like-named read-outs stand apart in the source and are kept apart here. Each block holds one compound with its values, some of them ahead of it.

Tests used:
Mab TrmD [1] = target: T1, Mab TrmD (Mycobacteroides abscessus, UniProt B1MDI3); assay: Isothermal titration calorimetry (ITC); type: binding; settings: for LE: ligand efficiency; for GE (R^1): group efficiency of R^1; for GE: group efficiency of the added group; for GE (CH2R^1): group efficiency of CH2R^1
T1 sequence (B1MDI3 entry or part of it): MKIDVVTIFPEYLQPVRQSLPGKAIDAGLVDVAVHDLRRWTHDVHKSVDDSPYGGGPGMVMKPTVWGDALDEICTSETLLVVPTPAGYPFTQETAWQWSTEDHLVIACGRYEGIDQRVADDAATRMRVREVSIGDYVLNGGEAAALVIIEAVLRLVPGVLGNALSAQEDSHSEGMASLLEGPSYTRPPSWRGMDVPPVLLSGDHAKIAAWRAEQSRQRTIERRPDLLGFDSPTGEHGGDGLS

Mab TrmD [2] = target: T1, Mab TrmD; settings: ligand efficiency, previously reported, cited from earlier work

SMILES: CCOC(=O)c1cn[nH]c1 [Compound 1, ethyl 1H-pyrazole-4-carboxylate]
LE (Mab TrmD [1]; Table 1): 0.55 kcal mol^–1 per heavy atom | LE (Mab TrmD [1]): 0.55 kcal mol^–1 per heavy atom

LE (Mab TrmD [1]; Table 1): 0.41 kcal mol^–1 per heavy atom | LE (Mab TrmD [1]): 0.41 kcal mol^–1 per heavy atom
SMILES: O=C(OCc1ccccc1)c1cn[nH]c1 [Compound 3, Benzyl 1H-Pyrazole-4-carboxylate]

LE (Mab TrmD [1]; Table 1): 0.36 kcal mol^–1 per heavy atom
SMILES: N#Cc1cccc(COC(=O)c2cn[nH]c2)c1 [Compound 6, 3-Cyanobenzyl 1H-Pyrazole-4-carboxylate]

LE (Mab TrmD [1]; Table 1): 0.39 kcal mol^–1 per heavy atom | LE (Mab TrmD [1]): 0.39 kcal mol^–1 per heavy atom
SMILES: COc1cccc(COC(=O)c2cn[nH]c2)c1 [Compound 7, 3-Methoxybenzyl 1H-Pyrazole-4-carboxylate]

LE (Mab TrmD [1]; Table 2): 0.32 kcal mol^–1 per heavy atom | LE (Mab TrmD [1]): 0.32 kcal mol^–1 per heavy atom
SMILES: COC(=O)COc1cccc(COC(=O)c2cn[nH]c2)c1 [Compound 8, 3-(2-Methoxy-2-oxoethoxy)benzyl 1H-Pyrazole-4-carboxylate]

LE (Mab TrmD [1]; Table 2): 0.38 kcal mol^–1 per heavy atom | LE (Mab TrmD [1]): 0.38 kcal mol^–1 per heavy atom
SMILES: CCOc1cccc(COC(=O)c2cn[nH]c2)c1 [Compound 10, 3-Ethoxybenzyl 1H-Pyrazole-4-carboxylate]

LE (Mab TrmD [1]; Table 2): 0.24 kcal mol^–1 per heavy atom | LE (Mab TrmD [1]): 0.24 kcal mol^–1 per heavy atom
SMILES: CCOC(=O)c1cnn(CC#Cc2cc(COC(=O)c3cn[nH]c3)cc(OC)c2)c1 [Compound 12, Ethyl 1-(3-(3-(((1H-Pyrazole-4-carbonyl)oxy)methyl)-5-methoxyphenyl)prop-2-yn-1-yl)-1H-pyrazole-4-carboxylate]

LE (Mab TrmD [1]; Table 2): 0.31 kcal mol^–1 per heavy atom | LE (Mab TrmD [1]): 0.31 kcal mol^–1 per heavy atom
SMILES: COc1cc(COC(=O)c2cn[nH]c2)cc(N2CCCC2)c1 [Compound 13, 3-Methoxy-5-(pyrrolidin-1-yl)benzyl 1H-Pyrazole-4-carboxylate]

LE (Mab TrmD [1]; Table 2): 0.31 kcal mol^–1 per heavy atom | LE (Mab TrmD [1]): 0.31 kcal mol^–1 per heavy atom
SMILES: COc1cc(COC(=O)c2cn[nH]c2)cc(-c2cccnc2)c1 [Compound 14, 3-Methoxy-5-(pyridin-3-yl)benzyl 1H-Pyrazole-4-carboxylate]

LE (Mab TrmD [1]; Table 2): 0.28 kcal mol^–1 per heavy atom | LE (Mab TrmD [1]): 0.28 kcal mol^–1 per heavy atom
SMILES: COc1cc(COC(=O)c2cn[nH]c2)cc(Cc2cccnc2)c1 [Compound 15]

SMILES: Nc1cc(-c2ccc3cc[nH]c3c2)[nH]n1 [Compound 23, 5-(1H-Indol-6-yl)-1H-pyrazol-3-amine]
LE (Mab TrmD [2]; Table 3): 0.36 kcal mol^–1 per heavy atom | LE (Mab TrmD [2]): 0.36 kcal mol^–1 per heavy atom

GE (R^1) (Mab TrmD [1]; Table 4): 0.04 kcal mol^–1 per heavy atom | LE (Mab TrmD [1]; Table 4): 0.24 kcal mol^–1 per heavy atom | LE (Mab TrmD [1]): 0.24 kcal mol^–1 per heavy atom
SMILES: COc1ccc(Cn2ccc3ccc(-c4cc(N)n[nH]4)cc32)cc1 [Compound 24a, 5-(1-(4-Methoxybenzyl)-1H-indol-6-yl)-1H-pyrazol-3-amine]

GE (R^1) (Mab TrmD [1]; Table 4): 0.14 kcal mol^–1 per heavy atom | LE (Mab TrmD [1]; Table 4): 0.28 kcal mol^–1 per heavy atom | GE (Mab TrmD [1]): 0.14 kcal mol^–1 per heavy atom | LE (Mab TrmD [1]): 0.28 kcal mol^–1 per heavy atom
SMILES: COc1cccc(Cn2ccc3ccc(-c4cc(N)n[nH]4)cc32)c1 [Compound 24b, 5-(1-(3-Methoxybenzyl)-1H-indol-6-yl)-1H-pyrazol-3-amine]

GE (R^1) (Mab TrmD [1]; Table 4): 0.15 kcal mol^–1 per heavy atom | LE (Mab TrmD [1]; Table 4): 0.28 kcal mol^–1 per heavy atom | LE (Mab TrmD [1]): 0.28 kcal mol^–1 per heavy atom
SMILES: N#Cc1ccccc1Cn1ccc2ccc(-c3cc(N)n[nH]3)cc21 [Compound 24d, 2-((6-(3-Amino-1H-pyrazol-5-yl)-1H-indol-1-yl)methyl)benzonitrile]

GE (R^1) (Mab TrmD [1]; Table 4): 0.18 kcal mol^–1 per heavy atom
SMILES: Nc1cc(-c2ccc3ccn(Cc4ccccn4)c3c2)[nH]n1 [Compound 24f, 5-(1-(Pyridin-2-ylmethyl)-1H-indol-6-yl)-1H-pyrazol-3-amine]
LE (Mab TrmD [2]; Table 4): 0.30 kcal mol^–1 per heavy atom | LE (Mab TrmD [2]): 0.30 kcal mol^–1 per heavy atom

LE (Mab TrmD [1]; Table 4): 0.43 kcal mol^–1 per heavy atom | GE (Mab TrmD [1]): 0.91 kcal mol^–1 per heavy atom | LE (Mab TrmD [1]): 0.43 kcal mol^–1 per heavy atom
SMILES: N#Cc1c(N)n[nH]c1-c1ccc2cc[nH]c2c1 [Compound 25, 3-Amino-5-(1H-indol-6-yl)-1H-pyrazole-4-carbonitrile]

GE (R^1) (Mab TrmD [1]; Table 4): 0.20 kcal mol^–1 per heavy atom | GE (Mab TrmD [1]): 0.95 kcal mol^–1 per heavy atom
SMILES: N#Cc1c(N)n[nH]c1-c1ccc2ccn(Cc3ccccn3)c2c1 [Compound 26f, 3-Amino-5-(1-(pyridin-2-ylmethyl)-1H-indol-6-yl)-1H-pyrazole-4-carbonitrile]
LE (Mab TrmD [2]; Table 4): 0.36 kcal mol^–1 per heavy atom | LE (Mab TrmD [2]): 0.36 kcal mol^–1 per heavy atom

fold improvement in binding affinity (decrease of Kd) relative to 26f (Mab TrmD [1]): greater than 2 fold | GE (R^1) (Mab TrmD [1]; Table 5): 0.28 kcal mol^–1 per heavy atom | LE (Mab TrmD [1]; Table 5): 0.38 kcal mol^–1 per heavy atom | LE (Mab TrmD [1]): 0.38 kcal mol^–1 per heavy atom
SMILES: N#Cc1c(N)n[nH]c1-c1ccc2ccn(Cc3cccnc3)c2c1 [Compound 26g, 3-Amino-5-(1-(pyridin-3-ylmethyl)-1H-indol-6-yl)-1H-pyrazole-4-carbonitrile]

GE (R^1) (Mab TrmD [1]; Table 5): 0.03 kcal mol^–1 per heavy atom | LE (Mab TrmD [1]; Table 5): 0.30 kcal mol^–1 per heavy atom | LE (Mab TrmD [1]): 0.30 kcal mol^–1 per heavy atom
SMILES: N#Cc1c(N)n[nH]c1-c1ccc2ccn(Cc3cccnc3O)c2c1 [Compound 26j, 3-Amino-5-(1-((2-hydroxypyridin-3-yl)methyl)-1H-indol-6-yl)-1H-pyrazole-4-carbonitrile]

GE (R^1) (Mab TrmD [1]; Table 5): 0.10 kcal mol^–1 per heavy atom | LE (Mab TrmD [1]; Table 5): 0.32 kcal mol^–1 per heavy atom | LE (Mab TrmD [1]): 0.32 kcal mol^–1 per heavy atom
SMILES: N#Cc1c(N)n[nH]c1-c1ccc2ccn(Cc3ccc(O)nc3)c2c1 [Compound 26k, 3-Amino-5-(1-((6-hydroxypyridin-3-yl)methyl)-1H-indol-6-yl)-1H-pyrazole-4-carbonitrile]

fold improvement in binding affinity (decrease of Kd) relative to 26f (Mab TrmD [1]): 4 fold | GE (R^1) (Mab TrmD [1]; Table 5): 0.31 kcal mol^–1 per heavy atom | LE (Mab TrmD [1]; Table 5): 0.39 kcal mol^–1 per heavy atom | LE (Mab TrmD [1]): 0.39 kcal mol^–1 per heavy atom
SMILES: N#Cc1c(N)n[nH]c1-c1ccc2ccn(Cc3ccncc3)c2c1 [Compound 26l, 3-Amino-5-(1-(pyridin-4-ylmethyl)-1H-indol-6-yl)-1H-pyrazole-4-carbonitrile]

GE (R^1) (Mab TrmD [1]; Table 5): 0.16 kcal mol^–1 per heavy atom | LE (Mab TrmD [1]; Table 5): 0.34 kcal mol^–1 per heavy atom | LE (Mab TrmD [1]): 0.34 kcal mol^–1 per heavy atom
SMILES: CN1CCCCC1Cn1ccc2ccc(-c3[nH]nc(N)c3C#N)cc21 (stereo not drawn) [Compound 26n, 3-Amino-5-(1-((1-methylpiperidin-2-yl)methyl)-1H-indol-6-yl)-1H-pyrazole-4-carbonitrile]

GE (R^1) (Mab TrmD [1]; Table 5): 0.20 kcal mol^–1 per heavy atom | LE (Mab TrmD [1]; Table 5): 0.35 kcal mol^–1 per heavy atom | LE (Mab TrmD [1]): 0.35 kcal mol^–1 per heavy atom
SMILES: CN1CCCC(Cn2ccc3ccc(-c4[nH]nc(N)c4C#N)cc32)C1 (stereo not drawn) [Compound 26o, 3-Amino-5-(1-((1-methylpiperidin-3-yl)methyl)-1H-indol-6-yl)-1H-pyrazole-4-carbonitrile]

LE (Mab TrmD [1]; Table 5): 0.28 kcal mol^–1 per heavy atom | LE (Mab TrmD [1]): 0.28 kcal mol^–1 per heavy atom
SMILES: N#Cc1c(N)n[nH]c1-c1ccc2c(Cl)cn(Cc3cccnc3)c2c1 [Compound 27g, 3-Amino-5-(3-chloro-1-(pyridin-3-ylmethyl)-1H-indol-6-yl)-1H-pyrazole-4-carbonitrile]

GE (CH2R^1) (Mab TrmD [1]; Table 6): 0.17 kcal mol^–1 per heavy atom
SMILES: N#Cc1c(N)n[nH]c1-c1ccc2ccn(Cc3ccc(CN4CCCC4)cn3)c2c1 [Compound 28, 3-Amino-5-(1-((5-(pyrrolidin-1-ylmethyl)pyridin-2-yl)methyl)-1H-indol-6-yl)-1H-pyrazole-4-carbonitrile]
LE (Mab TrmD [2]; Table 6): 0.32 kcal mol^–1 per heavy atom | LE (Mab TrmD [2]): 0.32 kcal mol^–1 per heavy atom

Kd (Mab TrmD [1]; Table 6): 70 ± 29 nM | LE (Mab TrmD [1]; Table 6): 0.31 kcal mol^–1 per heavy atom
SMILES: N#Cc1c(N)n[nH]c1-c1ccc2ccn(Cc3ccc(CN4CCCCC4)cc3)c2c1 [Compound 29b, 3-Amino-5-(1-(4-(piperidin-1-ylmethyl)benzyl)-1H-indol-6-yl)-1H-pyrazole-4-carbonitrile]

Kd (Mab TrmD [1]; Table 6): 190 ± 23 nM | LE (Mab TrmD [1]; Table 6): 0.30 kcal mol^–1 per heavy atom | LE (Mab TrmD [1]): 0.30 kcal mol^–1 per heavy atom
SMILES: N#Cc1c(N)n[nH]c1-c1ccc2ccn(Cc3ccc(CN4CCOCC4)cc3)c2c1 [Compound 29c, 3-Amino-5-(1-(4-(morpholinomethyl)benzyl)-1H-indol-6-yl)-1H-pyrazole-4-carbonitrile]

SMILES: CN1CCN(Cc2ccc(Cn3ccc4ccc(-c5[nH]nc(N)c5C#N)cc43)cc2)CC1 [Compound 29d, 3-Amino-5-(1-(4-((4-methylpiperazin-1-yl)methyl)benzyl)-1H-indol-6-yl)-1H-pyrazole-4-carbonitrile]
LE (Mab TrmD [2]; Table 6): 0.30 kcal mol^–1 per heavy atom | LE (Mab TrmD [2]): 0.30 kcal mol^–1 per heavy atom

Kd (Mab TrmD [1]; Table 6): 100 ± 24 nM | LE (Mab TrmD [1]; Table 6): 0.28 kcal mol^–1 per heavy atom | LE (Mab TrmD [1]): 0.28 kcal mol^–1 per heavy atom
SMILES: CC(C)N1CCN(Cc2ccc(Cn3ccc4ccc(-c5[nH]nc(N)c5C#N)cc43)cc2)CC1 [Compound 29e, 3-Amino-5-(1-(4-((4-isopropylpiperazin-1-yl)methyl)benzyl)-1H-indol-6-yl)-1H-pyrazole-4-carbonitrile]

Kd (Mab TrmD [1]; Table 6): 2000 ± 310 nM | LE (Mab TrmD [1]; Table 6): 0.27 kcal mol^–1 per heavy atom
SMILES: Cc1c(N)n[nH]c1-c1ccc2ccn(Cc3ccc(CN4CCCC4)cc3)c2c1 [Compound 30a, 4-Methyl-5-(1-(4-(pyrrolidin-1-ylmethyl)benzyl)-1H-indol-6-yl)-1H-pyrazol-3-amine]

Kd (Mab TrmD [1]; Table 6): 710 ± 90 nM | GE (CH2R^1) (Mab TrmD [1]; Table 6): 0.28 kcal mol^–1 per heavy atom | LE (Mab TrmD [1]; Table 6): 0.29 kcal mol^–1 per heavy atom
SMILES: Nc1cc(-c2ccc3ccn(Cc4ccc(CN5CCCCC5)cc4)c3c2)[nH]n1 [Compound 31b, 5-(1-(4-(Piperidin-1-ylmethyl)benzyl)-1H-indol-6-yl)-1H-pyrazol-3-amine]
